How the values were obtained:
Assay in all cases: relative viability (nuclei count vs DMSO), 5 days (fraction); higher = more cells survive
NCI-H596 = test system: NCI-H596
In short: (§1)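 Lung cancer cell lines were seeded in 1536-well plates and dosed by pin tool the next day, with either a single drug or a fixed anchor-drug dose combined with five library-drug doses (not always all listed) spaced in √10 steps. Five days later, one step fixed the cells and stained their nuclei (final 0.05% Triton X-100, 1% formaldehyde, 1 ug/ml Hoechst), and nuclei were counted on 4× images. Relative viability is the nuclei count in treated wells divided by the count in vehicle wells, and each value is the median of duplicate plates.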

NCI-H661 = test system: NCI-H661
In short: as §1

NCI-H1666 = test system: NCI-H1666
In short: as §1

NCI-H23 = test system: NCI-H23
In short: as §1

NCI-H1944 = test system: NCI-H1944
In short: as §1

NCI-H322M = test system: NCI-H322M
In short: as §1

201T = test system: 201T
In short: as §1

SW 1573 = test system: SW 1573
In short: as §1

NCI-H460 = test system: NCI-H460
In short: as §1

NCI-H2009 = test system: NCI-H2009
In short: as §1

NCI-H2087 = test system: NCI-H2087
In short: as §1

HOP-62 = test system: HOP-62
In short: as §1

LC-2-ad = test system: LC-2-ad
In short: as §1

NCI-H1651 = test system: NCI-H1651
In short: as §1

NCI-H2342 = test system: NCI-H2342
In short: as §1

ChaGo-K-1 = test system: ChaGo-K-1
In short: as §1

COR-L23 = test system: COR-L23
In short: as §1

NCI-H2126 = test system: NCI-H2126
In short: as §1

PC-3 [JPC-3] = test system: PC-3 [JPC-3]
In short: as §1

NCI-H1355 = test system: NCI-H1355
In short: as §1

CAL-12T = test system: CAL-12T
In short: as §1

Oc1nc(-c2ccc(C(F)(F)F)cc2)nc2c1CSCC2 [XAV939] + Nc1nc2[nH]cc(CCc3ccc(C(=O)N[C@@H](CCC(=O)O)C(=O)O)cc3)c2c(=O)[nH]1 [Pemetrexed] (partner 0.2 µM)
relative viability (NCI-H596; first compound 0.08 µM): 0.544
relative viability (NCI-H596; first compound 0.253 µM): 0.488
relative viability (NCI-H596; first compound 0.8 µM): 0.588
relative viability (NCI-H596; first compound 2.53 µM): 0.435
relative viability (NCI-H661; first compound 0.08 µM): 0.947
relative viability (NCI-H661; first compound 0.253 µM): 0.868
relative viability (NCI-H661; first compound 0.8 µM): 0.914
relative viability (NCI-H661; first compound 2.53 µM): 0.854
relative viability (NCI-H1666; first compound 0.08 µM): 0.822
relative viability (NCI-H1666; first compound 0.253 µM): 0.865
relative viability (NCI-H1666; first compound 0.8 µM): 0.864
relative viability (NCI-H1666; first compound 2.53 µM): 0.925
relative viability (NCI-H23; first compound 0.08 µM): 0.727
relative viability (NCI-H23; first compound 0.8 µM): 0.543
relative viability (NCI-H23; first compound 2.53 µM): 0.52
relative viability (NCI-H1944; first compound 0.08 µM): 0.714
relative viability (NCI-H1944; first compound 0.253 µM): 0.623
relative viability (NCI-H1944; first compound 0.8 µM): 0.584
relative viability (NCI-H1944; first compound 2.53 µM): 0.501
relative viability (NCI-H322M; first compound 0.08 µM): 0.585
relative viability (NCI-H322M; first compound 0.253 µM): 0.561
relative viability (NCI-H322M; first compound 0.8 µM): 0.548
relative viability (NCI-H322M; first compound 2.53 µM): 0.512
relative viability (201T; first compound 0.08 µM): 0.359
relative viability (201T; first compound 0.253 µM): 0.338
relative viability (201T; first compound 0.8 µM): 0.374
relative viability (201T; first compound 2.53 µM): 0.288
relative viability (SW 1573; first compound 0.08 µM): 0.876
relative viability (SW 1573; first compound 0.253 µM): 0.659
relative viability (SW 1573; first compound 0.8 µM): 0.816
relative viability (SW 1573; first compound 2.53 µM): 0.731
relative viability (NCI-H460; first compound 0.08 µM): 0.0608
relative viability (NCI-H460; first compound 0.253 µM): 0.0511
relative viability (NCI-H460; first compound 0.8 µM): 0.07
relative viability (NCI-H460; first compound 2.53 µM): 0.0697
relative viability (NCI-H2009; first compound 0.08 µM): 1.22
relative viability (NCI-H2009; first compound 0.253 µM): 1.08
relative viability (NCI-H2009; first compound 0.8 µM): 0.979
relative viability (NCI-H2009; first compound 2.53 µM): 0.978
relative viability (NCI-H2087; first compound 0.08 µM): 0.706
relative viability (NCI-H2087; first compound 0.253 µM): 0.636
relative viability (NCI-H2087; first compound 0.8 µM): 0.64
relative viability (NCI-H2087; first compound 2.53 µM): 0.552
relative viability (HOP-62; first compound 0.08 µM): 0.347
relative viability (HOP-62; first compound 0.253 µM): 0.287
relative viability (HOP-62; first compound 0.8 µM): 0.292
relative viability (HOP-62; first compound 2.53 µM): 0.215
relative viability (LC-2-ad; first compound 0.08 µM): 0.281
relative viability (LC-2-ad; first compound 0.253 µM): 0.265
relative viability (LC-2-ad; first compound 0.8 µM): 0.264
relative viability (LC-2-ad; first compound 2.53 µM): 0.266
relative viability (NCI-H1651; first compound 0.08 µM): 0.576
relative viability (NCI-H1651; first compound 0.253 µM): 0.513
relative viability (NCI-H1651; first compound 0.8 µM): 0.545
relative viability (NCI-H1651; first compound 2.53 µM): 0.4
relative viability (NCI-H2342; first compound 0.08 µM): 0.784
relative viability (NCI-H2342; first compound 0.253 µM): 0.662
relative viability (NCI-H2342; first compound 0.8 µM): 0.719
relative viability (NCI-H2342; first compound 2.53 µM): 0.426
relative viability (ChaGo-K-1; first compound 0.08 µM): 0.261
relative viability (ChaGo-K-1; first compound 0.253 µM): 0.259
relative viability (ChaGo-K-1; first compound 0.8 µM): 0.269
relative viability (ChaGo-K-1; first compound 2.53 µM): 0.26
relative viability (COR-L23; first compound 0.08 µM): 0.205
relative viability (COR-L23; first compound 0.253 µM): 0.186
relative viability (COR-L23; first compound 0.8 µM): 0.203
relative viability (COR-L23; first compound 2.53 µM): 0.206
relative viability (NCI-H2126; first compound 0.08 µM): 0.671
relative viability (NCI-H2126; first compound 0.253 µM): 0.542
relative viability (NCI-H2126; first compound 0.8 µM): 0.665
relative viability (NCI-H2126; first compound 2.53 µM): 0.598
relative viability (PC-3 [JPC-3]; first compound 0.253 µM): 1.04
relative viability (PC-3 [JPC-3]; first compound 0.8 µM): 0.946
relative viability (PC-3 [JPC-3]; first compound 2.53 µM): 1.11
relative viability (NCI-H1355; first compound 0.08 µM): 1.02
relative viability (NCI-H1355; first compound 0.253 µM): 0.944
relative viability (NCI-H1355; first compound 0.8 µM): 0.962
relative viability (NCI-H1355; first compound 2.53 µM): 0.852
relative viability (CAL-12T; first compound 0.08 µM): 1.2
relative viability (CAL-12T; first compound 0.253 µM): 1.13
relative viability (CAL-12T; first compound 0.8 µM): 1.18
relative viability (CAL-12T; first compound 2.53 µM): 0.814
